This note sets out measurements from patent US6096770A, “Anthranilic acid analogs” (American Home Products Corporation, priority 1998, dated 2000).

Read-outs that look alike come from different tables or passages of the source.

The test system of assay [1] is Isolated Rat Bladder Strips. The assay is described as follows: Inhibition of Contractions in Isolated Rat Bladder Strips (15 mM KCl-enhanced contractile activity). Particulars: for IC50: 0.5 h, 15 mM KCl, 37 deg. C., pH 7.4, 30 minute challenge, read-out: IC50 Bladder (B): concentration required to elicit 50% inhibition of pre-drug contractile activity. The assay is classed as tissue-based, Sprague-Dawley rats. On the procedure: Sprague-Dawley rats (150-200 g) are rendered unconscious by CO2 asphyxiation and then euthanized by cervical dislocation. […] The bladder is opened and then cut into strips 1-2 mm in width and 7-10 mm in length. The strips are subsequently suspended in a 10 mL tissue bath under an initial resting tension of 1.5 g. The strips are held in place by two surgical clips one of which is attached to a fixed hook while the other is attached to an isometric force transducer. […] The carbachol is then washed out and the tissue allowed to relax to its resting level of activity. Following a further 30 min period of recovery an additional 15 mM KCl are introduced into the tissue bath. […] Following stabilization of this enhanced level of contractile activity, incremental increases in the concentration of test compound or vehicle are introduced into the tissue bath. Contractile activity is measured for each compound or vehicle concentration during the last minute of a 30 minute challenge.

The next assay has as its system Aorta. The experiment in a line: Inhibition of contractions in aorta (indication of selectivity, Table I). The note with it: for IC50 (A)/IC50 (B): selectivity ratio aorta / bladder. The assay is classed as cell-based.

For `O=C(Nc1ccccc1C(=O)O)C1=C(c2ccc(C(F)(F)F)cc2)CCC1` [Example 1, 2-{[2-(4-Trifluoromethyl-phenyl)-cyclopent-1-enecarbonyl]-amino}-benzoic acid], in assay [1] (isolated rat bladder strips), the IC50 was 11 ± 4.04 µM. Regarding `O=C(O)c1ccccc1NC(=O)c1ncoc1-c1ccc(C(F)(F)F)cc1` [Example 2, 2-{[5-(4-Trifluoromethyl-phenyl)-oxazole-4-carbonyl]-amino}-benzoic acid], the IC50 in assay [1] (isolated rat bladder strips) amounted to 17.9 ± 5.8 µM. Regarding `O=C([O-])c1ccccc1NC(=O)c1ncoc1-c1ccc(C(F)(F)F)cc1.[Li+]` [Example 3, 2-{[5-(4-Trifluoromethyl-phenyl)-oxazole-4-carbonyl]-amino}-benzoic acid lithium salt], the IC50 in assay [1] (Rattus norvegicus, pH 7.4, isolated rat bladder strips) is 17.5 ± 12.4 µM. Further, in the assay with Aorta, the IC50 is 7.35 ± 0.25 µM and the “IC50 (A)/IC50 (B)” value was 0.42. As to `Cc1noc(-c2ccc(C(F)(F)F)cc2)c1C(=O)Nc1ccccc1C(=O)O` [Example 4, 2-{[3-Methyl-5-(4-trifluoromethyl-phenyl)-isoxazole-4-carbonyl]-amino}-benzoic acid], the IC50 in assay [1] (isolated rat bladder strips) came to 11.9 ± 3.95 µM. With `COc1ccc(/C=C/C(=O)Nc2ccccc2C(=O)O)cc1OC` [Tranilast, reference compound], the “potency and bladder selectivity as smooth muscle relaxant (in words)” value in assay [1] (in vitro, Table 1) is given as “not to be a potent or bladder selective smooth muscle relaxant”. In the assay with Aorta, the “IC50 (A)/IC50 (B)” value is given as 1.08.
